≈ marks a conversion by molar mass, not a printed value. Where two headings read alike, the source gives them in different places. Marks after values point to notes of the source that are not given here.
Assays:
T24 (bladder) [1] = conditions: for IC50: Homo sapiens, read-out: IC50 of standard agent alone
PANC1 (pancreas) [2] = conditions: for IC50: Homo sapiens, PANC-1, read-out: IC50 of standard agent alone
MT-4 cells = test: Viability of mock-infected MT-4 cells (MTT); type: cell-based; conditions: viability of mock-infected MT-4 cells reduced by 50%
Method: Compound concentrations (μg/ml) required to reduce the viability of mock-infected MT-4 cells by 50% are determined by the MTT-method.

HIV-1 = conditions: 50% protection of MT-4 cells, MTT-method
Source text: 1-Mock-infected MT-4 cell lines are used to support the growth of the HIV-1 virus.
Compound concentrations (μg/ml) required to achieve 50% protection of MT-4 cells from the HIV-1 induced cytopathogenecity, as determined by the MTT-method.

PANC1 (pancreas) [3] = tested on: PANC1 (pancreas)
T24 (bladder) [4] = tested on: T24 (bladder)
[5] = molecular target: reverse-transcriptase enzyme; test: Efficacy against reverse-transcriptase (RT); type: biochemical; conditions: in vitro
Method: 5.a Efficacy Against Reverse-Transcriptase (RT) Using Phosphonoformate as Inhibitors of RT • The inhibitory effect of the cold extract according to the present invention against the reverse-transcriptase enzyme is also studied using three different concentrations (0.1, 1 and 10 μg/ml) in vitro and compared with the phosphonoformate (PFA) as inhibitors of RT.

SMILES | IC50 (H460 (lung)) | IC50 (HCT116 (colon)) | IC50 (T24 (bladder) [4]) | further results
O=c1[nH]cc(F)c(=O)[nH]1 [5-FU, 5-fluoro-uracil] | 0.157 µg/mL (≈ 1.21 µM) |  |  | IC50 (T24 (bladder) [1]): 0.429 µg/mL (≈ 3.3 µM); IC50 (PANC1 (pancreas) [2]): 0.247 µg/mL (≈ 1.9 µM)
COc1cccc2c1C(=O)c1c(O)c3c(c(O)c1C2=O)C[C@@](O)(C(=O)CO)C[C@@H]3O[C@H]1C[C@H](N)[C@H](O)[C@H](C)O1 [ADR, adriamycin] | 0.004 µg/mL (≈ 0.00736 µM) | 0.006 µg/mL (≈ 0.011 µM) |  | IC50 (T24 (bladder) [1]): 0.058 µg/mL (≈ 0.107 µM); IC50 (PANC1 (pancreas) [2]): 0.022 µg/mL (≈ 0.0405 µM)
Cc1cn([C@H]2C[C@H](N=[N+]=[N-])[C@@H](CO)O2)c(=O)[nH]c1=O [AZT] |  |  |  | IC50 (MT-4) (MT-4 cells): >10 µg/mL; EC50 (HIV-1) (HIV-1): 0.01 µg/mL (≈ 0.0374 µM)
Nc1nc2[nH]cc(CCc3ccc(C(=O)N[C@@H](CCC(=O)O)C(=O)O)cc3)c2c(=O)[nH]1 [Alimta, alimta] | 0.018 µg/mL (≈ 0.0421 µM) |  |  | standard agent alone, based on IC70 values (PANC1 (pancreas) [2]; PANC1, no Breastin, Exp. GF683, IC70): <100^2) μg/ml
O=P1(N(CCCl)CCCl)NCCCO1 (stereo not shown) [CYACT, cyclophosphamide] |  |  | 0.32 µg/mL (≈ 1.23 µM) | IC50 (PANC1 (pancreas) [3]): 0.193 µg/mL (≈ 0.739 µM)
N.N.[Cl][Pt][Cl] [Cis-Platin, cisplatin] |  | > 30 µg/mL |  | IC50 of standard agent alone (T24 (bladder) [1]; T24, no Breastin, Exp. GF649): >30 µg/mL; IC50 of standard agent alone (PANC1 (pancreas) [2]; PANC1, no Breastin, Exp. GF654): 5.48 µg/mL
CO[C@@]12[C@H](COC(N)=O)C3=C(C(=O)C(C)=C(N)C3=O)N1C[C@@H]1N[C@@H]12 [Mitomycin, mitomycin-C] | 0.009 µg/mL (≈ 0.0269 µM) |  | 0.056 µg/mL (≈ 0.167 µM) | 
CCC1=C[C@@H]2CN(C1)Cc1c([nH]c3ccccc13)[C@@](C(=O)OC)(c1cc3c(cc1OC)N(C)[C@H]1[C@@](O)(C(=O)OC)[C@H](OC(C)=O)[C@]4(CC)C=CCN5CC[C@]31[C@@H]54)C2 [Navelbine, navelbine] | 0.057 µg/mL (≈ 0.0732 µM) | 0.06 µg/mL (≈ 0.077 µM) | 0.144 µg/mL (≈ 0.185 µM) | IC50 (PANC1 (pancreas) [3]): 0.119 µg/mL (≈ 0.153 µM)
O=C(O)P(=O)(O)O [PFA, phosphonoformate] |  |  |  | IC50, reverse-transcriptase enzyme [5]: 6 to 20 µg/mL
CC(=O)O[C@H]1C(=O)[C@@]2(C)[C@H]([C@H](OC(=O)c3ccccc3)[C@]3(O)C[C@H](OC(=O)[C@H](O)[C@@H](NC(=O)c4ccccc4)c4ccccc4)C(C)=C1C3(C)C)[C@]1(OC(C)=O)CO[C@@H]1C[C@@H]2O [TAXOL, taxol] | 0.0019 µg/mL (≈ 0.00223 µM) |  |  | IC50 (T24 (bladder) [1]): 0.01 µg/mL (≈ 0.0117 µM); IC50 (PANC1 (pancreas) [2]): 0.0019 µg/mL (≈ 0.00223 µM)
CC(=O)O[C@@]12CO[C@@H]1C[C@H](O)[C@@]1(C)C(=O)[C@H](O)C3=C(C)[C@@H](OC(=O)[C@H](O)[C@@H](NC(=O)OC(C)(C)C)c4ccccc4)C[C@@](O)([C@@H](OC(=O)c4ccccc4)[C@H]21)C3(C)C [Taxotere, taxotere] | 0.059 µg/mL (≈ 0.073 µM) |  | 0.163 µg/mL (≈ 0.202 µM) | 
CC[C@@]1(O)C(=O)OCc2c1cc1n(c2=O)Cc2cc3c(CN(C)C)c(O)ccc3nc2-1 [Topotecan, topotecan] | 0.0079 µg/mL (≈ 0.0187 µM) | 0.0066 µg/mL (≈ 0.0157 µM) | 0.0032 µg/mL (≈ 0.00759 µM) | 

Reference: patent publication US20070154573A1 (priority 2005, published 2007)
